From US8067015B2, “Methods and compositions for the treatment and prevention of Staphylococcus and other bacterial infections” (priority 1997, dated 2011)

Legend:
Assay type in all cases: in vivo
[1] = system: S. epidermidis MSSE strain; assay: Rat subcutaneous Dacron graft infection model, MSSE strain; settings: rats; for Bacterial concentration, MSSE: 2×10^7 bacteria, explanted day 7, mean ± SD
Experimental: (§1) Rats (Wistar adult males (300-350 g), n=15/experimental group) were anaesthetized, hair on their back shaved and the skin cleansed with 10% povidone-iodine solution. A subcutaneous pocket was made on the side of the median line by a 1.5 cm incision. Aseptically, 1 cm^2 sterile collagen-sealed Dacron graft (Albograft™, Sorin Biomedica Cardio, S.p.A., Saluggi VC, Italy) was implanted into the pocket. […] Pockets were closed by skin clips and 1 ml sterile saline solution with or without 2×10^7 bacteria was inoculated onto the graft surface using a tuberculin syringe to create a subcutaneous fluid-filled pocket. Some of the animals that had grafts soaked only with RIP or saline were injected intraperitoneally with antibiotics (cefazolin 30 mg/kg, imipenem 30 mg/kg, teicoplanin 10 mg/kg, levofloxacin 10 mg/kg). Grafts were explanted 7 days following implantation.
(§2) The explanted grafts were placed in sterile tubes, washed in sterile saline solution, placed in tubes containing 10 ml of phosphate-buffered saline solution and sonicated for 5 min to remove the adherent bacteria from the grafts. Quantitation of viable bacteria was performed by culturing serial 10-fold dilutions (0.1 ml) of the bacterial suspension on blood agar plates. All plates were incubated at 37° C. for 48 hr and evaluated for the presence of the strain. Bacteria were quantitated by counting the number of colony forming unites (CFU) per plate. To determine if bacteria were efficiently removed from the graft, washed and sonicated grafts were observed under a Nikon Eclipse E 600 optical microscope (Nikon Y-THS, Japan).
(§3) Quantitative culture results of the in vivo experiments were presented as mean+SD of the mean. Comparisons of the results were performed by the analysis of variance (ANOVA) on the log-transformed data. Statistical analysis was performed for in vitro adhesion assays using Student's t-Test by Microsoft Excel (Microsoft, Wash.). Significance was accepted when the P value was <0.05.
(§4) To test if RIP can prevent graft-associated infections, Dacron grafts were coated with or without RIP, and with or without various types of antibiotics (for local prophylaxis experiments). Coated grafts were implanted in rats, bacteria injected into the implants, implants removed after a week, and bacterial load determined. Alternatively, Dacron grafts were first coated with RIP, bacteria injected, and antibiotics were administered by the intraperitoneal route (for parenteral prophylaxis experiments). As a negative control, grafts were implanted without local or parenteral RIP/antibiotics prophylaxis and no bacteria were injected. As a positive control, grafts were implanted, bacteria were injected, but no RIP/antibiotics prophylaxis was given.
(§5) Animals (15/group) received a Dacron-graft implanted in a subcutaneous pocket. Graft was subsequently infected with either S. epidermidis (tested on MSSE, MRSE and GISE) or with S. aureus (tested on MSSA, MRSA and GISA). […]

[2] = system: S. epidermidis GISE strain; assay: Rat subcutaneous Dacron graft infection model, GISE strain; settings: rats; for Bacterial concentration, GISE: 2×10^7 bacteria, explanted day 7, mean ± SD
Experimental: as §1, §2, §3, §4, §5

[3] = system: S. epidermidis MRSE strain; assay: Rat subcutaneous Dacron graft infection model, MRSE strain; settings: rats; for Bacterial concentration, MRSE: 2×10^7 bacteria, explanted day 7, mean ± SD
Experimental: as §1, §2, §3, §4
Animals (15/group) received a Dacron-graft implanted in a subcutaneous pocket. Graft was subsequently infected with either S. epidermidis (tested on MSSE, MRSE and GISE) or with S. aureus (tested on MSSA, MRSA and GISA). The Dacron-graft prior to implantation was soaked in saline with or without 20 mg/l of RIP and some animals received […] of RIP i.p. as a prophylaxis treatment.

[4] = A. Local prophylaxis: graft soaked 20 min in RIP 10 mg/l and/or antibiotic (mupirocin 100, quinupristin-dalfopristin 50, levofloxacin 30, rifampin 5 mg/l)
[5] = B. Parenteral prophylaxis: antibiotic intraperitoneally (cefazolin 30, imipenem 30, teicoplanin 10, levofloxacin 10 mg/kg), RIP as 10 mg/l graft soak
[6] = peptide-soaked/coated Dacron graft (RIP 10 mg/l), no antibiotic, day 7

Compound | Bacterial concentration, MSSE [1, 4] | Bacterial concentration, GISE [2, 4] | Bacterial concentration, MRSE [3, 4] | Bacterial concentration, MSSE [1, 5] | Bacterial concentration, GISE [2, 5] | Bacterial concentration, MRSE [3, 5] | Quantitative culture results of explanted graft, MSSE strain [1, 6] | Quantitative culture results of explanted graft, GISE strain [2, 6] | Quantitative culture results of explanted graft, MRSE strain [3, 6]
CO[C@H]1/C=C/O[C@@]2(C)Oc3c(C)c(O)c4c(O)c(c(/C=N/N5CCN(C)CC5)c(O)c4c3C2=O)NC(=O)/C(C)=C\C=C\[C@H](C)[C@H](O)[C@@H](C)[C@@H](O)[C@@H](C)[C@H](OC(C)=O)[C@@H]1C [Rifampicin, rifampin] | 0.73 ± 0.2 ×10^4 CFU/ml | 84 ± 27 ×10^4 CFU/ml | 0.8 ± 0.37 ×10^4 CFU/ml | – | – | – | – | – | –
Cc1nnc(SCC2=C(C(=O)O)N3C(=O)[C@@H](NC(=O)Cn4cnnn4)[C@H]3SC2)s1 [Cefazolin, cefazolin] | – | – | – | 0.64 ± 0.19 ×10^4 CFU/ml | 590 ± 200 ×10^4 CFU/ml | 370 ± 120 ×10^4 CFU/ml | – | – | –
YKPETNF [inactive RIP peptide analogue] | – | – | – | – | – | – | 5.4×10^6±8×10^5 CFU/ml | 6.52×10^6±3×10^6 CFU/ml | 7.08×10^6±2.1×10^6 CFU/ml
quinupristin-dalfopristin | 0.0026 ± 0.0003 ×10^4 CFU/ml | 0.0069 ± 0.0013 ×10^4 CFU/ml | 0.0048 ± 0.001 ×10^4 CFU/ml | – | – | – | – | – | –
C/C(=C\C(=O)OCCCCCCCCC(=O)O)C[C@@H]1OC[C@H](C[C@@H]2O[C@H]2[C@@H](C)[C@H](C)O)[C@@H](O)[C@H]1O [Mupirocin, mupirocin] | 0.064 ± 0.015 ×10^4 CFU/ml | 0.07 ± 0.018 ×10^4 CFU/ml | 0.035 ± 0.014 ×10^4 CFU/ml | – | – | – | – | – | –
C[C@@H](O)[C@H]1C(=O)N2C(C(=O)O)=C(SCCN=CN)C[C@H]12 [Imipenem, imipenem] | – | – | – | 0.73 ± 0.2 ×10^4 CFU/ml | 89 ± 36 ×10^4 CFU/ml | 4 ± 1.8 ×10^4 CFU/ml | – | – | –
teicoplanin | – | – | – | 0.0084 ± 0.0004 ×10^4 CFU/ml | 57 ± 24 ×10^4 CFU/ml | 0.072 ± 0.008 ×10^4 CFU/ml | – | – | –
C[C@H]1COc2c(N3CCN(C)CC3)c(F)cc3c(=O)c(C(=O)O)cn1c23 [Levofloxacin, levofloxacin] | 4.2 ± 2.1 ×10^4 CFU/ml | 280 ± 40 ×10^4 CFU/ml | 6.8 ± 2.5 ×10^4 CFU/ml | 3.5 ± 1.1 ×10^4 CFU/ml | 480 ± 170 ×10^4 CFU/ml | 3.9 ± 1.4 ×10^4 CFU/ml | – | – | –
